# Assay results from patent US6562993B1, “Preservative compounds” (ISP Investments Inc., priority 2002, dated 2003).
# How the values were obtained:
# Test in all cases: Minimum Inhibitory Concentration (MIC) Test, serial dilution
# Type in all cases: cell-based
# [1] = system: Burkholderia cepacia ATCC 25416; details: B. cepacia; weight percent of active ingredients; propylene glycol solvent
# Description: (§1) The Minimum Inhibitory Concentration (MIC) Test is an in vitro serial dilution procedure to assess antimicrobial activity. The MIC of a substance is the minimum concentration that will inhibit the growth of test organisms. Two species each of bacteria and fungi were included in the evaluation.
# (§2) Cultiloop™ transfer cultures were used, and the bacteria were cultured on Brain Heart Infusion agar for 24 hours at 37° C. A saline suspension of each bacterial species was prepared and standardized on the spectrophotometer to the organism inoculum concentration. The yeast culture (Candida) was grown on a slant of Saboraud Dextrose agar for 48 hours at 27° C., and the slant was then washed with saline to prepare the inoculum. The mold culture (Aspergillus) was incubated for 7-10 days at 27° C. until sporulation occurred. The mold inoculum was prepared by washing the mature slant and harvesting the spores after filtration through sterile gauze.
# (§3) The results are summarized in the Table below, where the concentrations refer to the weight percents of active ingredients.
# [2] = system: Candida albicans ATCC 10231; details: C. albicans; weight percent of active ingredients; propylene glycol solvent
# Description: as §1, §2, §3
# [3] = system: Aspergillus niger ATCC 16404; details: A. niger; weight percent of active ingredients; propylene glycol solvent
# Description: as §1, §2, §3
# [4] = system: Staphylococcus aureus ATCC 6538; details: S. aureus; weight percent of active ingredients; propylene glycol solvent
# Description: as §1, §2, §3
smiles,measurement,setting,value
"CC(Br)(C#N)CCC#N (stereo not shown) [Compound II, 2-bromo-2-methylglutaronitrile]",MIC Cidal,[1],<0.05%
same,MIC Static,[1],<0.05%
same,MIC Cidal,[2],<0.05%
same,MIC Static,[2],<0.05%
same,MIC Cidal,[3],0.10%
same,MIC Static,[3],<0.05%
same,MIC Cidal,[4],0.10%
same,MIC Static,[4],<0.05%
"N#CCCC(Br)(C#N)CBr (stereo not shown) [Merguard ®, 1,2-dibromo-2,4-dicyanobutane]",MIC Cidal,[1],<0.05%
same,MIC Static,[1],<0.05%
same,MIC Cidal,[2],<0.05%
same,MIC Static,[2],<0.05%
same,MIC Cidal,[3],<0.05%
same,MIC Static,[3],<0.05%
same,MIC Cidal,[4],<0.05%
same,MIC Static,[4],<0.05%
